Active and inactive are the calls of the source.
Legend:
[1] = Trypanosoma cruzi growth suppression in host cells – NIH3T3 host cells, beta-gal luminescence, confirmation (AID 2044); format: functional, cell-based;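 further: intracellular parasites grown in NIH/3T3 mouse fibroblasts as host cells; luminescent beta-galactosidase reporter signal from transgenic T. cruzi replicating inside host cells; inhibitors lower the luminescence signal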
[2] = NIH3T3 cell viability loss – ATP luminescence, mouse fibroblasts, counter-screen, dose response (AID 2010); format: functional, cell-based;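 further: cells exposed to compound for about 90 hours before reading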
[3] = reduction of Shn3 3'UTR-driven luciferase in osteoblasts – cell-based, Clone20 osteoblasts, firefly luciferase, cherry-picked, dose response (AID 624132); format: functional;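 further: firefly luciferase luminescence from reporter carrying the Shn3 3'UTR in osteoblasts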
[4] = loss of viability in HepG2 cells – cell-based, CellTiter-Glo, cherry-picked, cytotoxicity control for Shn3 inhibitor project, dose response (AID 624134); format: functional
[5] = non-specific 3'UTR reporter inhibition in Clone20-Shn3RL – cell-based, Renilla luciferase, cherry-picked, counter-screen for Shn3 inhibitor project, dose response (AID 624133); format: functional
[6] = activation of miR-122 Renilla sensor silencing – cell-based, Huh7 psiCHECK-miR122, Renilla luciferase, cherry-picked, dose response (AID 651956); format: functional;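 further: huh7 hepatoma cells stably carrying a psiCHECK-2 miR-122 sensor plasmid; renilla luciferase signal reporting endogenous miR-122 activity after 48 h compound exposure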
[7] = general mammalian cell viability loss – inhibitor set, cherry-pick, set 2, cytotoxicity control for miR-122 modulator project, dose response (AID 720697); format: functional, cell-based
Cytochrome P450 2C19 = Cytochrome P450 2C19 (Homo sapiens, UniProt P33261); experiment: Cytochrome panel assay with activity outcomes. Panel member name: p450-cyp2c19 Compounds with AC50 equal or less than 10 uM are considered active; format: functional; details: read-out: AC50
Cytochrome P450 2C9 = Cytochrome P450 2C9 (Homo sapiens, UniProt P11712)
Cytochrome P450 1A2 = target: T1, Cytochrome P450 1A2 (Homo sapiens, UniProt P05177);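 further: PubChem cytochrome P450 panel assay, CYP1A2 panel member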
T1 sequence (P05177 whole entry): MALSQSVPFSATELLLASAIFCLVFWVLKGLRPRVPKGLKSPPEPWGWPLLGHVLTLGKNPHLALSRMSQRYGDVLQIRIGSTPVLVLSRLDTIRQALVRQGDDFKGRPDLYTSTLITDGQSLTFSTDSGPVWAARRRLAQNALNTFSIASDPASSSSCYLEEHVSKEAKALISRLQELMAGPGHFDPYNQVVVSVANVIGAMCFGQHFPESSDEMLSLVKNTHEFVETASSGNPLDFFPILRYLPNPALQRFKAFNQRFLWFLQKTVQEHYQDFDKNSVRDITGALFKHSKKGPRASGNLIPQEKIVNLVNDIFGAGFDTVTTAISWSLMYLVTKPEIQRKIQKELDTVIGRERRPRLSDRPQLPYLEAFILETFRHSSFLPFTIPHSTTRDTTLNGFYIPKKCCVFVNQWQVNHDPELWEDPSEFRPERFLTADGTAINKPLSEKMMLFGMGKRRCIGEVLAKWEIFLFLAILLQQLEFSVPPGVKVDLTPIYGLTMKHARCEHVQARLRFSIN

[8] = blockers of bursicon-stimulated LGR2 cAMP reporter – cell-based, HEK293, CRE-luciferase reporter, cherry pick, set 2, dose response (AID 743343); format: functional;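 further: transfected cells were stimulated with diluted bursicon conditioned medium after compound addition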
[9] = blockade of melanocortin 4 receptor signaling – cell-based, plate reader, cherry pick, counter-screen for LGR2 antagonist project, dose response (AID 743444); format: functional;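 further: transfected HEK 293 cells stimulated with alpha-MSH peptide; potency of inhibitors of the alpha-MSH evoked signal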
[10] = tested on: Streptococcus sp. 'group A'; experiment: Streptococcus pyogenes SK(-)GAS viability under kanamycin – luminescence, BacTiterGlo, confirmation, counter-screen for streptokinase expression inhibitor project, dose response (AID 1900); format: functional, organism-based
Streptokinase A = target: T2, Streptokinase A (Streptococcus pyogenes serotype M1, UniProt P10520); experiment: viability-normalized secreted streptokinase activity reduction – plasminogen activation absorbance, OD405, dose response (AID 1914); format: functional, Streptococcus pyogenes M1 GAS;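 further: secreted streptokinase activity via plasminogen activation per viability signal from cell pellet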
T2 sequence (P10520 whole entry): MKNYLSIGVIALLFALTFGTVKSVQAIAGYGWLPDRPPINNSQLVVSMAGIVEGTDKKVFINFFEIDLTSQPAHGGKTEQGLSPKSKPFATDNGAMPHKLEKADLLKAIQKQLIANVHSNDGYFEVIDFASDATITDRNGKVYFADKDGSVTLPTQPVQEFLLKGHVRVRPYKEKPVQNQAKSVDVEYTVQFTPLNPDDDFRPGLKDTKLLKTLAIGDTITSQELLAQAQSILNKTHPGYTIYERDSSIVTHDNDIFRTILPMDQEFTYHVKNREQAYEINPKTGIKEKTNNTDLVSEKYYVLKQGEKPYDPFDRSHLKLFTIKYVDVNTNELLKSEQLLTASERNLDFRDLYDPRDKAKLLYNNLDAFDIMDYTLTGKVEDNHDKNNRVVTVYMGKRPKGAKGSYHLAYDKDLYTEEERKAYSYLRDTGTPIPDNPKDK

[11] = viability of PTEN-deleted HCT116 cells – cell-based, HCT116 PTEN knockout, dose response (AID 1047); format: functional;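 further: HCT116 colon tumor cells with PTEN knocked out; cells exposed to compound for 60 hours before readout; potency for loss of cell viability measured by luminescence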
[12] = viability of HCT116 lacking mutant beta-catenin – cell-based, human colon tumor, dose response (AID 1045); format: functional;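 further: HCT116 colon tumor cells with beta catenin knocked out; cells exposed to compound for 60 hours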
Streptococcus = experiment: GAS UMAA2166 growth inhibition – luminescence, BacTiterGlo, counter-screen for streptokinase expression inhibitor project, dose response (AID 1915); format: functional, organism-based;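 further: potency for reduction of bacterial viability or growth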
[13] = Luminescence Cell-Based Dose Retest to Confirm Inhibitors of Cancer Stem Cells. [Related pubchem assays (depositor defined):AID2717, AID2721]; format: functional; details: Homo sapiens
INS1 = experiment: INS-1E survival protection against cytokine death – cell-based, luminescence, retest, dose response (AID 449756); format: functional; details: Rattus norvegicus;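 further: cell death triggered by IL-1 beta plus TNF-alpha plus IFN-gamma mixture; protective hits raise ATP signal compared with cytokine alone wells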
[14] = general mammalian cell viability loss – activator set, cherry-pick, cytotoxicity control for miR-122 modulator project, dose response (AID 720690); format: functional, cell-based;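 further: HEK293T human cells scored for general mammalian cytotoxicity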
[15] = Luminescence Cell-Based Dose Confirmation HTS to Identify Activators of 5'UTR Stem-Loop Driven Alpha-Synuclein mRNA Translation in H4 Neuroglioblastoma Cells. [Related pubchem assays: 1829 (Project Summary), 1814 (Primary HTS)]; format: functional
[16] = Luminescence Cell-Based Dose Response HTS to Identify Activators of Luciferase Translation or Activity in H4 […] Cells. [Related pubchem assays: 1829 (Project Summary), 1814 (Primary HTS)]; format: functional
H4 = experiment: Luminescence Cell-Based Dose Response HTS to Identify Activators of 5'UTR Stem-Loop Driven Prion Protein mRNA Translation in H4 Neuroglioblastoma Cells. [Related pubchem assays: 1829 (Project Summary), 1814 (Primary HTS)]; format: functional; details: Homo sapiens
cells [17] = format: functional, cell-based
cells [18] = format: functional, cell-based; remark: listed apart in the source

Cytochrome P450 2C9, sequence (P11712 whole entry): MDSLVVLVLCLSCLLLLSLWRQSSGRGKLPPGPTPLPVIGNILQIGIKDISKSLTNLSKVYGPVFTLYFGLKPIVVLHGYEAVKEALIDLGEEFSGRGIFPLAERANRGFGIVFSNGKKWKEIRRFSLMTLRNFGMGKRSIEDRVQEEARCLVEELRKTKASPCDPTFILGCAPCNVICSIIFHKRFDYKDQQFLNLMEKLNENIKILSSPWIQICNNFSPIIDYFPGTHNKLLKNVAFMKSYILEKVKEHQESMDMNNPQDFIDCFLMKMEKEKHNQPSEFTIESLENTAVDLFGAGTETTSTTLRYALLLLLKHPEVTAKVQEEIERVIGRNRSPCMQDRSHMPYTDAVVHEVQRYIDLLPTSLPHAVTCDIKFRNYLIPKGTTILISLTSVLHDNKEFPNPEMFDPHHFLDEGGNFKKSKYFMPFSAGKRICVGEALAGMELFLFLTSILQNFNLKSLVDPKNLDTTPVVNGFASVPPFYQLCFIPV
Cytochrome P450 2C19, sequence (P33261 whole entry): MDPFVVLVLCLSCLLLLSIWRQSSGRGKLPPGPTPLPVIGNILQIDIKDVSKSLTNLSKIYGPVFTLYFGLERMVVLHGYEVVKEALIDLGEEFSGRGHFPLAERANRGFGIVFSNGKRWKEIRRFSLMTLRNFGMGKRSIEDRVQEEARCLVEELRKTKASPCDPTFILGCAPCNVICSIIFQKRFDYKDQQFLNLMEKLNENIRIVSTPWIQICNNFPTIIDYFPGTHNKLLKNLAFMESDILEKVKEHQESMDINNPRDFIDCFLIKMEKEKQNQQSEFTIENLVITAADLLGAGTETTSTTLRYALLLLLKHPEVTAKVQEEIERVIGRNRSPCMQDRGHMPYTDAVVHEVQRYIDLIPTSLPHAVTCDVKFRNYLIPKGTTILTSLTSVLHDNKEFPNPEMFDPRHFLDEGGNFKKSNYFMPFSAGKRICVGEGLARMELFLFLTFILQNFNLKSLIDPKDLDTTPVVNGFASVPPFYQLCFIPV

CC1=Nc2nnnn2C(c2cccnc2)/C1=C(\O)OC1CCCCC1 (centres undefined)
EC50 [1]: 1.79 µM (active)
EC50 [2]: > 60 µM (not active)
AC50 [3]: 3.23 µM (active)
AC50 [4]: > 70 µM (inactive)
AC50 [5]: 3.92 µM (active)

C[C@H](CO)N1C[C@H](C)[C@@H](CN(C)Cc2ccc(Oc3ccccc3)cc2)Oc2ncc(-c3cncnc3)cc2C1=O
AC50 [6]: 26 µM (active)
AC50 [7]: 0.511 µM (active)

O=C(/C=C/c1cc2c(cc1Br)OCO2)NCc1ccc(Cl)cc1
AC50 (Cytochrome P450 2C19): 17.8 µM (inconclusive)
AC50 (Cytochrome P450 2C9): inconclusive

COc1ccc(S(=O)(=O)Nc2cccc(Cl)c2)cc1OC
AC50 (Cytochrome P450 1A2): 31.6 µM (inconclusive)
AC50 (Cytochrome P450 2C9): inconclusive

Cc1c(NC(=O)c2ccc(-c3ccccc3)cc2)cccc1C(=O)O
AC50 [8]: 17.1 µM (active)
AC50 [9]: 13.5 µM (active)

Cc1nn(Cc2c(Cl)cccc2Cl)c(C)c1NC(=O)c1cn(-c2ccccc2)nc1-c1ccccc1
EC50 [10]: 8.01 µM (active)
EC50 (Streptokinase A): > 150 µM (not active)
EC50 [11]: 4.36 µM (active)
EC50 [12]: 4.04 µM (active)
EC50 (Streptococcus): 21.6 µM (active)
AC50 [13]: 1.01 µM (active)
AC50 (INS1): 2.46 µM (active)
AC50 [3]: 55 µM (active)
AC50 [5]: 25.8 µM (active)

COc1ccc(CN2CCOC2=O)cc1OC
AC50 [7]: 9.25 µM (active)

C/C=C/c1ccc([C@H]2[C@@H](CNC(=O)CC)N(Cc3ccccn3)[C@H]2CO)cc1
AC50 [7]: 0.454 µM (active)

COc1cc(CC(=O)Nc2nc(-c3ccc(F)c(F)c3)cs2)cc(OC)c1OC
AC50 (INS1): 6.89 µM (active)
AC50 [3]: 3.92 µM (active)
AC50 [4]: 6.77 µM (active)
AC50 [5]: 19.2 µM (active)

C[C@@H]1CCCCO[C@@H](CN(C)Cc2ccc3c(c2)OCO3)[C@H](C)CN([C@H](C)CO)C(=O)c2cc(NC(=O)Nc3ccc(C(F)(F)F)cc3)ccc2O1
AC50 [6]: 5.55 µM (active)
AC50 [7]: 8.08 µM (active)
AC50 [14]: 9.09 µM (active)

CC(C)OC(=O)CC12CN(C)CC(CC(=O)OC(C)C)(CN(C)C1)C2=O
EC50 [15]: 47.6 µM (active)
EC50 [16]: 72.4 µM (active)
EC50 (H4): 37 µM (active)
AC50 (Cytochrome P450 2C9): inconclusive

CC(C)(C)NC(=O)CN(Cc1ccc2c(c1)OCO2)C(=O)CNS(=O)(=O)c1ccc(F)cc1
EC50 (cells [17]): > 350 µM (not active)
EC50 (cells [18]): > 350 µM (not active)

NS(=O)(=O)c1ccc(CNC(=O)/C=C/c2c(Cl)cccc2Cl)cc1
AC50 (Cytochrome P450 2C19): 25.1 µM (inconclusive)
AC50 (Cytochrome P450 2C9): inconclusive

— ChEMBL document CHEMBL1201862, “PubChem BioAssay data set” (2004)
